Data as given in patent publication US20230123334A1, “AMINO LIPID COMPOUND, PREPARATION METHOD THEREFOR, AND APPLICATION THEREOF” (SHENZHEN SHENXIN BIOTECHNOLOGY CO., LTD., priority 2020, published 2023).

What follows are compounds tested on HEK293 cells (assay: Preliminary screening as DNA vectors, GFP transfection of HEK293 cells). Details: HEK293 cells; lipid/DOPE liposome with 75 ng plasmid DNA (psin-EGFP-IRES-Puro); number of cells expressing GFP divided by total number of nuclei (Hoechst).
Assay type: cell-based
Method in brief: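 First, amino lipid and DOPE were vortexed in sodium acetate buffer (pH 5.6) to form liposomes. Next, these were held with 75 ng EGFP plasmid at room temperature for 30 min. Finally, HEK293 cells were added, cultured at 37° C., Hoechst-stained, and GFP+/total nuclei scored by imaging.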

SMILES | Absolute DNA transfection efficiency in HEK293 cells
CCCCCCCCCCCCN(CCCCCCCCCCCC)c1nc(NCCCCCCCCCCC)nc(NCCN2CCOCC2)n1 [Compound N112N12D2] | 0.0%

Same assay, conditions: amino lipid/DOPE liposome with 75 ng plasmid DNA (psin-EGFP-IRES-Puro); number of GFP-expressing cells divided by total nuclei (Hoechst)

SMILES | Absolute DNA transfection efficiency in HEK293 cells
CCCCCCCCCCCCCCSc1nc(NCCCCCCCCCCCCC)nc(NCCCN(C)C)n1 [S14N13 D6] | 2.6%
CCCCCCCCCCCCCNc1nc(NCCN2CCCC2)nc(SCCCCCCCCCCC)n1 [S11N13 D3] | 17.5%
CCCCCCCCNc1nc(NCCN(CC)CC)nc(SCCCCCC)n1 [S6N8 D7] | 0.9%
CCCCCCCCCCSc1nc(NCCN2CCN(C)CC2)nc(SCCCCCCCC)n1 [S8S10 D5] | 19.5%
CCCCCCCCCCCCCCCCNc1nc(NCCN2CCCC2)nc(SCCCCCCCCCCCCCCC)n1 [S15N16 D3] | 0.6%
CCCCCCCCCCCCN(CCCCCCCCCCCC)c1nc(NCCN2CCOCC2)nc(SCCCCCCCCCCC)n1 [S11^2N12 D2] | 0.0%
CCCCCCCCCCCCCCCCSc1nc(NCCCCCC)nc(NCCN(CC)CC)n1 [S16N6 D7] | 5.8%
CCCCCCCCCCCCCCCCCCSc1nc(NCCCN2CCN(C)CC2)nc(SCCCCCC)n1 [S6S18 D9] | 8.7%
CCCCCCCCCCCCCCCCCCNc1nc(NCCCN(C)C)nc(SCCCCCCCCCCC)n1 [S11N18 D6] | 21.7%
CCCCCCCCCCCCCCCCCCNc1nc(NCCN(CC)CC)nc(SCCCCCCCCCCC)n1 [S11N18 D7] | 3.4%
CCCCCCCCCCCCCCSc1nc(NCCCCCCCCCCCCC)nc(NCCCN2CCOCC2)n1 [S14N13 D8] | 0.3%
CCCCCCCCCCCCCCSc1nc(NCCCCCC)nc(NCCCN2CCN(C)CC2)n1 [S14N6 D9] | 17.4%
CCCCCCCCCSc1nc(NCCCCCC)nc(NCCN2CCCC2)n1 [S9N6 D3] | 27.0%
CCCCCCCCCCCCCCCCCCSc1nc(NCCCCCCC)nc(NCCN2CCCCC2)n1 [S18N7 D4] | 3.5%
CCCCCCCCCCCCCCCNc1nc(NCCN(CC)CC)nc(SCCCCCCCCC)n1 [S9N15 D7] | 4.6%
CCCCCCCCCCCCCCCCNc1nc(NCCCN2CCOCC2)nc(SCCCCCCCCCC)n1 [S10N16 D8] | 3.0%
CCCCCCCCCCCCCCCCSc1nc(NCCCCCCCCCCC)nc(NCCCN(C)C)n1 [S16N11 D6] | 10.3%
CCCCCCCCCCCCCCSc1nc(NCCCCCCCCCCC)nc(NCCCN2CCN(C)CC2)n1 [S14N11 D9] | 10.2%
CCCCCCCCCCSc1nc(NCCCCCCC)nc(NCCN2CCCC2)n1 [S10N7 D3] | 7.4%
CCCCCCCCCCCCSc1nc(NCCCCCCCC)nc(NCCCN2CCOCC2)n1 [S12N8 D8] | 0.0%
CCCCCCCCCCCNc1nc(NCCN(C)C)nc(SCCCCCCCCCC)n1 [S10N11 D1] | 4.8%
CCCCCCCCCCCCCCCSc1nc(NCCCCCCC)nc(NCCCN2CCN(C)CC2)n1 [S15N7 D9] | 17.1%
CCCCCCCCCCCCCCCCCCNc1nc(NCC2CCN(C)CC2)nc(SCCCCCCCCCCC)n1 [S11N18 D10] | 5.7%
CCCCCCCCCCCCCCCCCCSc1nc(NCCCCCCCCCCCC)nc(NCCN2CCCCC2)n1 [S18N12 D4] | 0.3%

SMILES | Absolute DNA transfection efficiency in HEK293 cells
CCCCCCCCCCCCCCCCCCNc1nc(NCCN2CCCCC2)nc(SCCCCCCCCC)n1 [S9N18 D4] | 9.0%
CCCCCCCCCCCCCCCNc1nc(NCCCN(C)C)nc(SCCCCCCCC)n1 [S8N15 D6] | 23.7%
CCCCCCCCCCCCCCCCCCSc1nc(NCCCCCCCC)nc(NCCN2CCN(C)CC2)n1 [S18N8 D5] | 13.6%
CCCCCCCCCSc1nc(NCCCCCC)nc(NCCN(C)C)n1 [S9N6 D1] | 16.1%
CCCCCCCCCCCCNc1nc(NCCCN(C)C)nc(SCCCCCCCCCCCC)n1 [S12N12 D6] | 9.1%
CCCCCCCCCCCCCCSc1nc(NCCN(C)C)nc(N(CCCCCCCCCCCC)CCCCCCCCCCCC)n1 [S14^2N12 D1] | 0.3%
CCCCCCCCCCCCN(CCCCCCCCCCCC)c1nc(NCCN(CC)CC)nc(SCCCCCCCCCC)n1 [S10^2N12 D7] | 0.7%
CCCCCCCCCCCCCCCCCCNc1nc(NCCN2CCN(C)CC2)nc(SCCCCCCCC)n1 [S8N18 D5] | 8.6%
CCCCCCCCCCCNc1nc(NCCCN2CCN(C)CC2)nc(SCCCCCCCCCC)n1 [S10N11 D9] | 10.8%
CCCCCCSc1nc(NCCCN2CCN(C)CC2)nc(SCCCCCC)n1 [S6S6 D9] | 7.6%
CCCCCCCCCCCCCCCCNc1nc(NCCN2CCCC2)nc(SCCCCCCCCCCC)n1 [S11N16 D3] | 13.8%
CCCCCCCCCCCCCNc1nc(NCCN(CC)CC)nc(SCCCCCCCCCC)n1 [S10N13 D7] | 4.4%
CCCCCCCCCCCNc1nc(NCCCN2CCN(C)CC2)nc(SCCCCCCC)n1 [S7N11 D9] | 43.9%
CCCCCCCCCCCCCCCCCCSc1nc(NCCCCCC)nc(NCCN2CCN(C)CC2)n1 [S18N6 D5] | 18.1%
CCCCCCCCCCCCCCCCCCSc1nc(NCCCCCCCCCCC)nc(NCCN2CCN(C)CC2)n1 [S18N11 D5] | 6.3%
CCCCCCCCSc1nc(NCCCN2CCOCC2)nc(SCCCCCC)n1 [S6S8 D8] | 0.6%
CCCCCCNc1nc(NCCCN2CCOCC2)nc(SCCCCCC)n1 [S6N6 D8] | 0.0%
CCCCCCCCCCCCCCCSc1nc(NCCCCCCCC)nc(NCCN2CCN(C)CC2)n1 [S15N8 D5] | 17.3%
CCCCCCCCCCSc1nc(NCCCCCCCC)nc(NCC2CCN(C)CC2)n1 [S10N8 D10] | 0.6%
CCCCCCCCCNc1nc(NCC2CCN(C)CC2)nc(SCCCCCCCCC)n1 [S9N9 D10] | 34.5%
CCCCCCCCCCCSc1nc(NCCCCCCCCC)nc(NCC2CCN(C)CC2)n1 [S11N9 D10] | 32.5%
CCCCCCCCCCCSc1nc(NCCCCCCCC)nc(NCCCN(C)C)n1 [S11N8 D6] | 36.9%
CCCCCCCCCCSc1nc(NCCCCCCC)nc(NCC2CCN(C)CC2)n1 [S10N7 D10] | 1.1%
CCCCCCCCCCCCN(CCCCCCCCCCCC)c1nc(NCCCN2CCOCC2)nc(SCCCCCCCCC)n1 [S9^2N12 D8] | 0.0%

SMILES | Absolute DNA transfection efficiency in HEK293 cells
CCCCCCCCCCCCCCCCSc1nc(NCCCN(C)C)nc(N(CCCCCCCCCCCC)CCCCCCCCCCCC)n1 [S16^2N12 D6] | 0.0%
CCCCCCCCSc1nc(NCCN2CCCCC2)nc(SCCCCCCC)n1 [S7S8 D4] | 7.0%
CCCCCCCCCCSc1nc(NCCCCCCCC)nc(NCCN2CCN(C)CC2)n1 [S10N8 D5] | 13.2%
CCCCCCCCCCCCCCSc1nc(NCCCCCCCC)nc(NCCN2CCCC2)n1 [S14N8 D3] | 24.4%
CCCCCCCCCCCCCCCCCCSc1nc(NCCN(C)C)nc(N(CCCCCCCCCCCC)CCCCCCCCCCCC)n1 [S18^2N12 D1] | 0.0%
CCCCCCCCNc1nc(NCCN2CCCC2)nc(SCCCCCCC)n1 [S7N8 D3] | 9.3%
CCCCCCCCCCSc1nc(NCCN(C)C)nc(SCCCCCCCC)n1 [S8S10 D1] | 16.3%
CCCCCCCCCCCCCCCCNc1nc(NCCN2CCOCC2)nc(SCCCCCCCCCCCCCC)n1 [S14N16 D2] | 0.0%
CCCCCCCCCCCSc1nc(NCCCCCCCCC)nc(NCCCN(C)C)n1 [S11N9 D6] | 40.1%
CCCCCCCCCCCCCCCCCCNc1nc(NCCN2CCN(C)CC2)nc(SCCCCCCCCCCCCCC)n1 [S14N18 D5] | 0.6%
CCCCCCCCCCCSc1nc(NCCN(CC)CC)nc(SCCCCCC)n1 [S6S11 D7] | 10.1%
CCCCCCCCCCCCCCCCNc1nc(NCCN(CC)CC)nc(SCCCCCCCC)n1 [S8N16 D7] | 5.2%
CCCCCCCCCCCCCCCCCCSc1nc(NCCCCCCCCCCCC)nc(NCCCN2CCN(C)CC2)n1 [S18N12 D9] | 0.0%
CCCCCCCCCCCCSc1nc(NCCCN2CCOCC2)nc(SCCCCCCCC)n1 [S8S12 D8] | 34.4%
CCCCCCCSc1nc(NCCCCCC)nc(NCCN2CCOCC2)n1 [S7N6 D2] | 1.8%
CCCCCCCCCCCCCCCNc1nc(NCCCN2CCN(C)CC2)nc(SCCCCCCCCCCCCCC)n1 [S14N15 D9] | 0.7%
CCCCCCCCCCCCCCCSc1nc(NCCN(C)C)nc(SCCCCCC)n1 [S6S15 D1] | 5.5%
CCCCCCCCCCCCCCCSc1nc(NCCCCCCCC)nc(NCCN2CCCC2)n1 [S15N8 D3] | 12.7%
CCCCCCCCCCSc1nc(NCCCCCCCC)nc(NCCCN2CCOCC2)n1 [S10N8 D8] | 3.4%
CCCCCCCCCCCNc1nc(NCCCN2CCOCC2)nc(SCCCCCCCCC)n1 [S9N11 D8] | 26.8%
CCCCCCCCNc1nc(NCCN(CC)CC)nc(SCCCCCCCC)n1 [S8N8 D7] | 5.2%
CCCCCCCCCCCCNc1nc(NCCN2CCCCC2)nc(SCCCCCCCCCCCC)n1 [S12N12 D4] | 0.1%
